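All cell lines were grown in 96-well plates and treated with compound for 48 hours. GI50: concentration for 50% inhibition of growth. TGI marks complete inhibition of growth.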
What was measured:
Test in all cases: growth of human tumour cells (NCI), 48 h
[1] = tested on: OVCAR-3 ovarian
[2] = tested on: A498 renal
[3] = tested on: SNB-75 CNS
[4] = tested on: EKVX NSCLC
[5] = tested on: CCRF-CEM leukemia
[6] = tested on: SK-MEL-28 melanoma
[7] = tested on: HT29 colon
[8] = tested on: PC-3 prostate
[9] = tested on: NCI-H226 lung
[10] = tested on: HL-60(TB) leukemia
[11] = tested on: HCT-116 colon
[12] = tested on: U251 CNS
[13] = tested on: CAKI-1 renal
[14] = tested on: COLO 205 colon
[15] = tested on: MDA-MB-435

Row | Compound | TGI [1] | TGI [2] | TGI [3] | TGI [4] | TGI [5] | TGI [6] | TGI [7] | TGI [8] | TGI [9] | TGI [10] | TGI [11] | TGI [12] | TGI [13] | TGI [14] | TGI [15] | GI50 [3] | GI50 [4] | GI50 [5] | GI50 [10] | GI50 [15]
1 | CC(=O)OC1COC(n2c(-c3ccc(Cl)cc3)cc(-c3ccccc3)c(C#N)c2=S)C(OC(C)=O)C1OC(C)=O (configuration not stated) | 18.2 µM | 34.1 µM | > 100 µM | > 100 µM | > 86.1 µM | > 45.8 µM | > 64.6 µM | 46.3 µM | 32.3 µM | > 89.9 µM | > 51.7 µM | 15.5 µM | 50 µM | > 64.2 µM | > 62.4 µM |  |  |  |  | 
2 | NC(=O)C(c1ccccc1)N1OC2C(=O)N(c3cccc4ccccc34)C(=O)C2C1c1c2ccccc2c(Cl)c2ccccc12 (configuration not stated) | 17.5 µM | 37.4 µM | 20.4 µM | 30 µM |  | 34.6 µM | 14.7 µM | 18.6 µM | 13.5 µM | 11.2 µM | 3.05 µM | 15.9 µM | 22.7 µM | 14.9 µM | 22.7 µM |  |  |  |  | 
3 | Nc1cn(Cc2ccccc2)c2nc(/C=C3/C=CC=CC3=O)c(O)n12 | > 100 µM | > 100 µM | > 100 µM | > 100 µM | > 100 µM | > 100 µM | > 100 µM | > 100 µM | > 100 µM | > 100 µM | > 100 µM | > 100 µM | > 100 µM | > 100 µM | > 100 µM |  |  |  |  | 
4 | CCCCCCCCCCCCC(O)C1CCC(C(O)CCCCCCC(O)CCCCCCCC2=CC(C)OC2=O)O1 (configuration not stated) | 45.7 µM | > 100 µM | > 100 µM | > 100 µM | 79.9 µM | > 100 µM |  | 90.7 µM | > 100 µM | 62.8 µM | > 100 µM | > 100 µM | 71.9 µM | 44.2 µM | > 100 µM | 74.5 µM | 23 µM | 15.4 µM | 0.852 µM | 27 µM
5 | O=C1c2c(ccc3c2CCC3)CC12Cc1cc3c(cc1C2)CCC3 | > 100 µM | > 100 µM | > 100 µM | > 100 µM | > 100 µM | > 100 µM | > 100 µM | > 100 µM | > 100 µM | > 100 µM | > 100 µM | > 100 µM | > 100 µM | > 100 µM | > 100 µM |  |  |  |  | 
6 | COc1c2ccccc2c(OC)c2nc(C)ccc12 | > 100 µM | > 100 µM | > 100 µM | > 100 µM | 71.6 µM | > 100 µM | > 100 µM | > 100 µM | > 100 µM | 61.8 µM | > 100 µM | > 46.4 µM | > 100 µM | > 96.7 µM | > 100 µM |  |  |  |  | 
7 | CNn1c(C)n[nH]c1=O | > 100 µM | > 100 µM | 85.1 µM | > 100 µM | > 100 µM | > 100 µM |  | > 100 µM | > 100 µM | > 100 µM | > 100 µM | > 100 µM | > 100 µM | > 100 µM | > 100 µM |  |  |  |  | 

Reference: PubChem BioAssay (NCI)
